Reference: PMC10590419, “Structural and mechanistic insights into the inhibition of respiratory syncytial virus polymerase by a non-nucleoside inhibitor” (Communications Biology, 2023)
pIC50: −log10 of the molar value. Where two headings read alike, the source gives them in different places.

Target: recombinant RSV L+P (Human respiratory syncytial virus A, UniProt P28887)
Experiment: De novo RNA synthesis assay, recombinant RSV L+P, Tr14 template
Type: biochemical, Human RSV (strain A2)
Description: The reactions were performed as described by Cressey et al.[22]. […] The reactions were incubated at 30 °C for 1 h and then stopped by adding gel loading buffer containing 90% formamide, 50 mM EDTA, 0.05% Xylene Cyanol and Bromophenol Blue. Samples were denatured at 95 °C for 5 min and run on a 22.5% polyacrylamide urea sequencing gel at 80 W with radiolabeled RNA markers generated via the T7 DNA dependent RNA polymerase (DdRp). The gel was dried, exposed to a phosphor-screen, scanned on a Typhoon scanner (GE Healthcare), and quantified using ImageQuant (GE Healthcare). Bands were identified as extension products or initiation products by the 11-nucleotide ppp[…] and 2-nucleotide pppGA RNA markers, respectively. Radiolabeled RNA markers corresponding to pppGA, ppp[…], and intermediates were generated utilizing a reaction by T7 DNA-dependent RNA polymerase (AM2718, Ambion)[53]. DNA oligos: 5’-[…]-3’ (T7 promoter primer) and 5’-[…]-3’ (T7 promoter primer + target sequence template) were synthesized at IDT. Due to a mechanistic idiosyncrasy in T7 DdRp, an additional Adenosine residue was placed between the T7 promoter and the target sequence in the template. Each 40 µl reaction contained 5 mM ATP, 5 mM CTP, 5 mM GTP, 100 nM annealed DNA primer and template, 20 U T7 DdRp, 1x T7 DdRp Buffer (40 mM Tris pH 7.8, 20 mM NaCl, 6 mM MgCl2, 2 mM Spermidine HCl, 10 mM DTT), and 20 µCi of [α-^33P]ATP. Reactions were incubated at 30 °C for 5 h. Then 1 µl of reconstituted DNase I (Ambion) was added and incubated for an additional 10 min at 37 °C. This reaction was quenched with the addition of 60 µl gel loading buffer.
Supplementary Figure 4. Inhibition of de novo initiation and extension of RSV L-P RNA synthesis by JNJ-8003. a. reaction scheme. b. a sequencing gel image showing RNA products […]
contained 10 nM RSV L-P, 2 μM RNA template (Tr14), 500 μM GTP, 10 μM ATP, 170 nM [α-33P]ATP, so RNA synthesis started from +3 site and paused with a major 11-mer product. c.
Data was from the quantitation results of the gel image in b. d. The reactions […]
Data points indicate the mean, and error bars depict the SD of three technical replicates. e. a sequencing gel image showing RNA products synthesized by RSV L-P along with no enzyme control. Reaction condition was same as in b with no compound added. […]

[1] = repeat in triplicate, 0.093 nM to 200 nM

Chain of recombinant RSV L+P (P28887 whole entry): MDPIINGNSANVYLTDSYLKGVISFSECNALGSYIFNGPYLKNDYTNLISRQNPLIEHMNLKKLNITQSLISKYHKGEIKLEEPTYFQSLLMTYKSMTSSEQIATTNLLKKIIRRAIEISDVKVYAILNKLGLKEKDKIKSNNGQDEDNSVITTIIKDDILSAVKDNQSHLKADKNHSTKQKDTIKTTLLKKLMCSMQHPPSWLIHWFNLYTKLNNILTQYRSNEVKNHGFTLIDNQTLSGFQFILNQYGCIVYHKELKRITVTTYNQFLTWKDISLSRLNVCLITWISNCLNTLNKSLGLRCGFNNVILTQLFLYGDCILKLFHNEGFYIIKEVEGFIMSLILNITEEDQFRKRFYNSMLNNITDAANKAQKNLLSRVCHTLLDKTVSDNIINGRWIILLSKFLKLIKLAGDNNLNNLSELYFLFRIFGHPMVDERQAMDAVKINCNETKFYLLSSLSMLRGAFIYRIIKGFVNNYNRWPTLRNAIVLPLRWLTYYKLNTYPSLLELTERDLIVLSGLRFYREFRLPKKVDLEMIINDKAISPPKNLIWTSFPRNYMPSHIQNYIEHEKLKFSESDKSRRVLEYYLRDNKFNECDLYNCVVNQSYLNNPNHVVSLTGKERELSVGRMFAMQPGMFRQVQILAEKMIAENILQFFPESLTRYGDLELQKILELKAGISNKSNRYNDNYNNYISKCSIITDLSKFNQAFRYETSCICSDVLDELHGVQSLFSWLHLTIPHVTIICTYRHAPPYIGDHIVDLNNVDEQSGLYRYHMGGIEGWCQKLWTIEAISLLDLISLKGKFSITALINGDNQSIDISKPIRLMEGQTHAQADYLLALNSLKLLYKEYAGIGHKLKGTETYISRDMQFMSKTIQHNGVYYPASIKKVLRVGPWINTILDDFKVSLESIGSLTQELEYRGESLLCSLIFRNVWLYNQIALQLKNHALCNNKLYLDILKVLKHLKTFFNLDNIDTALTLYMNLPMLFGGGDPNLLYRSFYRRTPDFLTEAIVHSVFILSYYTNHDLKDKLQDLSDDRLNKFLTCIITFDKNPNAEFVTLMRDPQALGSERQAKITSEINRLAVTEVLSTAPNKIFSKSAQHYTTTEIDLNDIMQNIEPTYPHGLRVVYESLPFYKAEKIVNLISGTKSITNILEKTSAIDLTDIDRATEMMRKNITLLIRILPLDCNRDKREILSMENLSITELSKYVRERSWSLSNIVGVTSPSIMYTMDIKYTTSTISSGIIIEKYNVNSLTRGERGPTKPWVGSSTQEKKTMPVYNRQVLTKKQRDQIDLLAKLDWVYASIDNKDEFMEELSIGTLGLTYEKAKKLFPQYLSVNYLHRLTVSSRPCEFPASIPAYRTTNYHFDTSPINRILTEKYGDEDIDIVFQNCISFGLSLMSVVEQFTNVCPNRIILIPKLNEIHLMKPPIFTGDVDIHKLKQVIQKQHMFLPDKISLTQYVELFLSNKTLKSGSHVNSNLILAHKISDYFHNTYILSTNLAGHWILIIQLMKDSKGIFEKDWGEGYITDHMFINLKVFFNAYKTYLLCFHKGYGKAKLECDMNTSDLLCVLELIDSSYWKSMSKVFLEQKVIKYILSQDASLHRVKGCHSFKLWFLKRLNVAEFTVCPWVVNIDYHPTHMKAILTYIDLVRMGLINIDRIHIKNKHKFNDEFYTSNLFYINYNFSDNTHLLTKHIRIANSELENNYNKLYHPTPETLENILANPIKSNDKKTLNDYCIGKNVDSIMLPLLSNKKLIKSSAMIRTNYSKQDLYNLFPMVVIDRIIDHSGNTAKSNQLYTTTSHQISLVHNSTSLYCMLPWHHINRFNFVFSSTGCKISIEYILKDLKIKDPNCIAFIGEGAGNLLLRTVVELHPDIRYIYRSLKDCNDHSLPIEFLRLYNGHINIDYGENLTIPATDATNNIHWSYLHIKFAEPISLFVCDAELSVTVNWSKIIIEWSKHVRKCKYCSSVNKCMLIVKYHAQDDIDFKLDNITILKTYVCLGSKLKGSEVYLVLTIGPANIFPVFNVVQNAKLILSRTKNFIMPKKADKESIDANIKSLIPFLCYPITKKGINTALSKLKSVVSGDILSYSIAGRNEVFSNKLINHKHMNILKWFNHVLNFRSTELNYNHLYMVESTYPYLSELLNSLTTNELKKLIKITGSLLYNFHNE
Chain of recombinant RSV L+P (P03421 whole entry, further chain): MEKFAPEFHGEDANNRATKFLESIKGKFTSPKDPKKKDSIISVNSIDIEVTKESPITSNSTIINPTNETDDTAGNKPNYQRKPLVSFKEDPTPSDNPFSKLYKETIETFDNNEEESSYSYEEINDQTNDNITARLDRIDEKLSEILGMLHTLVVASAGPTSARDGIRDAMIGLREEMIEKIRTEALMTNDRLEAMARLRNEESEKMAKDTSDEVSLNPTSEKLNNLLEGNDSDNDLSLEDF

For `COc1cc(C(=O)NC[C@](O)(c2cc(C(C)(C)O)c(F)c(-c3ccc(F)cc3)n2)C(F)(F)F)cc2cc(C)nnc12` [JNJ-8003], the “maximal inhibition, 11-mer product” value (9.3 pM to 200 μM) was 99%, the “maximal inhibition, de novo pppGpA formation” value (9.3 pM to 200 μM) was 65% and the pIC50 (9.3 pM to 200 μM, read-out: IC50, 11-mer product) was 8.33. The pIC50 (+3 site, tr-14, 9.3 pM to 200 μM, read-out: IC50, de novo pppGpA dinucleotide formation) was 8.29, the “maximal inhibition, 11-mer product” value [1] was 100% and the “maximal inhibition, de novo pppGpA formation” value [1] was 69%. For the same compound, the pIC50 (repeat in triplicate, 0.093 nM to 200 nM, read-out: IC50, 11-mer product) was 8.44 and the pIC50 (repeat in triplicate, 0.093 nM to 200 nM, read-out: IC50, de novo pppGpA formation) was 8.64.
